Measurements as given in patent US20030165475A1, “Non-lethal methods for conditioning a recipient for bone marrow transplantation” (priority 1993, published 2003).
Where two headings read alike, the source gives them in different places.

Assays:
baboon = conditions: CyP day -3, -2, -1 + 9.5 Gy TLI day 0
NOD mice = test: Partial conditioning for HSC chimerism in NOD mice; format: in vivo, mouse
Text: Often, higher doses of donor cells are required for engraftment as well as higher doses of conditioning to make space. […] One of the goals of the present studies was to identify a strategy to overcome the alloresistance to chimerism in NOD mice by further reducing the irradiation dose for conditioning.
The animals were transplanted with 55×10^6 or 60×10^6 B10.BR/SgnSnJ bone marrow cells, respectively.

B10 mice = conditions: for NO. OF ANIMALS ENGRAFTED: 300 cGy
Experimental: Recipients were characterized for donor cell engraftment using flow cytometry (FACS II, Becton Dickinson; Mountain View, Calif.) to determine the presence of peripheral blood lymphocytes bearing H-2^b, H-2^k, and H-2^d encoded antigens as described (Jeffries et al., 1985, J Exp Med 117:127).
Briefly, peripheral blood was collected through tail bleeding into heparinized plastic serum vials. 2001 μl of Medium 199 (Gibco Laboratories; Grand Island, N.Y.) were added to each vial. After thorough mixing, the suspension was layered over 1.5 ml of room temperature Lymphocyte Separation Medium (LSM) (Organon Teknika; Durham, N.C.) and centrifuged at 37° C. (400g×20 minutes). The buffy coat layer was aspirated from the Medium 199-LSM interface and washed with medium. Lymphocytes were stained with fluorescein-conjugated monoclonal antibodies for donor- and host-specific class I antibodies H2K^b (AF6-88.5), H2K^d (SF1-1.1), and H2K^k (AF3-12.1) (Pharmingen) conjugated with fluorescein and lineage markers conjugated with PE α β-TCR (H57-597), CD4 (L3T4), CD8 (Ly2), NK1.1 (PK136), and CD45R/B220 (RA3-603) (Pharmingen) and MAC-1 (M1/70) (Boehringer Mannheim, Indianapolis, Ind.) for 45 minutes at 4° C.

baboons = system: baboons
Experimental: In addition-to TBI, TLI was also tested in conditioning recipients for bone marrow transplantation. As a single dose, TLI was simply a modified form of TBI in that the method of delivery was the same, except that only certain parts of the recipient's body was exposed to the irradiation. […] In the following study, baboons were treated with a single dose of 7.5 Gy of TLI at day 0 followed by transfer of allogeneic baboon bone marrow cells with at least one MHC disparity. […] Xenogeneic transplantation with human cells was also performed in baboons conditioned with TLI.

[1] = 600 cGy TBI + CyP 50 mg/kg i.p. two days after BMT, 60 × 10^6 B10.BR cells

SMILES: O=P1(N(CCCl)CCCl)NCCCO1 (stereo not drawn) [CyP, cyclophosphamide]
- GVHD / morbidity (baboon): no GVHD or significant morbidity
- chimerism, human cells (baboon; two months after transplantation): 15%
- ANIMALS WITH ENGRAFTMENT (NOD mice; 600 cGy TBI + 100 μg mAb i.v. day 5, 3, 1 prior, or + 200 mg/kg CyP i.p. two days after, 55 or 60 × 10^6 B10.BR cells): 4/4
- donor chimerism (NOD mice; [1]): 91.5%
- engraftment (NOD mice; [1]): 100%
- animals engrafted (NOD mice; 600 cGy TBI + single dose CyP 200 mg/kg): 100%
- recipients engrafted (B10 mice; 50 mg/kg CyP or more on day 2 with ALG plus 300 cGy TBI): more than 85%
- NO. OF ANIMALS ENGRAFTED (B10 mice; CyP 50 mg/kg day 2, 1 MG ALG): 2/2
- NO. OF ANIMALS ENGRAFTED (B10 mice; CyP 50 mg/kg day 2, 2 MG ALG): 1/1
- NO. OF ANIMALS ENGRAFTED (B10 mice; CyP 50 mg/kg day 2, TOTAL): 3/3
- NO. OF ANIMALS ENGRAFTED (B10 mice; CyP 100 mg/kg day 2, 1 MG ALG): 2/2
- NO. OF ANIMALS ENGRAFTED (B10 mice; CyP 100 mg/kg day 2, 2 MG ALG): 2/2
- NO. OF ANIMALS ENGRAFTED (B10 mice; CyP 100 mg/kg day 2, TOTAL): 4/4
- NO. OF ANIMALS ENGRAFTED (B10 mice; CyP 150 mg/kg day 2, 1 MG ALG): 3/4
- NO. OF ANIMALS ENGRAFTED (B10 mice; CyP 150 mg/kg day 2, 2 MG ALG): 2/2
- NO. OF ANIMALS ENGRAFTED (B10 mice; CyP 150 mg/kg day 2, TOTAL): 5/6
- NO. OF ANIMALS ENGRAFTED (B10 mice; CyP 200 mg/kg day 2, 1 MG ALG): 5/6
- NO. OF ANIMALS ENGRAFTED (B10 mice; CyP 200 mg/kg day 2, 2 MG ALG): 7/8
- NO. OF ANIMALS ENGRAFTED (B10 mice; CyP 200 mg/kg day 2, TOTAL): 12/14
- treated animals with stable donor cell engraftment (baboons; 7.5 Gy TLI + single dose CyP 50 mg/kg at day +2): about 50%
- duration of stable engraftment (baboons; 7.5 Gy TLI + two doses of CyP): ≥ 36 weeks
